The values that follow come from patent US20210186970A1, “SELECTIVE CALCIUM CHANNEL ANTAGONISTS” (Northwestern University, priority 2011, published 2021).

Several values for one entry are separate records, joined by “and”; a condition that tells them apart may be missing. Equal values may be shown once.

In series [1] the target is T1, Cav1.3 L-type Ca channels (Rattus norvegicus, UniProt P27732).
T1 construct: expressed in transfected cells; host or cells: HEK293
Put plainly: FLIPR Fluo-8 calcium assay, Cav1.3 channel inhibition in HEK293 cells. The following applies: for selectivity for Cav1.3 over Cav1.2: ratio of IC50 values for the two cell lines. The class given is cell-based.

In series [2] the target is T2, Cav1.3 (α1D) LTCC (Rattus norvegicus, UniProt P27732).
T2 construct: expressed in transfected cells; host or cells: HEK-293, stably transfected
T2 sequence (P27732 whole entry): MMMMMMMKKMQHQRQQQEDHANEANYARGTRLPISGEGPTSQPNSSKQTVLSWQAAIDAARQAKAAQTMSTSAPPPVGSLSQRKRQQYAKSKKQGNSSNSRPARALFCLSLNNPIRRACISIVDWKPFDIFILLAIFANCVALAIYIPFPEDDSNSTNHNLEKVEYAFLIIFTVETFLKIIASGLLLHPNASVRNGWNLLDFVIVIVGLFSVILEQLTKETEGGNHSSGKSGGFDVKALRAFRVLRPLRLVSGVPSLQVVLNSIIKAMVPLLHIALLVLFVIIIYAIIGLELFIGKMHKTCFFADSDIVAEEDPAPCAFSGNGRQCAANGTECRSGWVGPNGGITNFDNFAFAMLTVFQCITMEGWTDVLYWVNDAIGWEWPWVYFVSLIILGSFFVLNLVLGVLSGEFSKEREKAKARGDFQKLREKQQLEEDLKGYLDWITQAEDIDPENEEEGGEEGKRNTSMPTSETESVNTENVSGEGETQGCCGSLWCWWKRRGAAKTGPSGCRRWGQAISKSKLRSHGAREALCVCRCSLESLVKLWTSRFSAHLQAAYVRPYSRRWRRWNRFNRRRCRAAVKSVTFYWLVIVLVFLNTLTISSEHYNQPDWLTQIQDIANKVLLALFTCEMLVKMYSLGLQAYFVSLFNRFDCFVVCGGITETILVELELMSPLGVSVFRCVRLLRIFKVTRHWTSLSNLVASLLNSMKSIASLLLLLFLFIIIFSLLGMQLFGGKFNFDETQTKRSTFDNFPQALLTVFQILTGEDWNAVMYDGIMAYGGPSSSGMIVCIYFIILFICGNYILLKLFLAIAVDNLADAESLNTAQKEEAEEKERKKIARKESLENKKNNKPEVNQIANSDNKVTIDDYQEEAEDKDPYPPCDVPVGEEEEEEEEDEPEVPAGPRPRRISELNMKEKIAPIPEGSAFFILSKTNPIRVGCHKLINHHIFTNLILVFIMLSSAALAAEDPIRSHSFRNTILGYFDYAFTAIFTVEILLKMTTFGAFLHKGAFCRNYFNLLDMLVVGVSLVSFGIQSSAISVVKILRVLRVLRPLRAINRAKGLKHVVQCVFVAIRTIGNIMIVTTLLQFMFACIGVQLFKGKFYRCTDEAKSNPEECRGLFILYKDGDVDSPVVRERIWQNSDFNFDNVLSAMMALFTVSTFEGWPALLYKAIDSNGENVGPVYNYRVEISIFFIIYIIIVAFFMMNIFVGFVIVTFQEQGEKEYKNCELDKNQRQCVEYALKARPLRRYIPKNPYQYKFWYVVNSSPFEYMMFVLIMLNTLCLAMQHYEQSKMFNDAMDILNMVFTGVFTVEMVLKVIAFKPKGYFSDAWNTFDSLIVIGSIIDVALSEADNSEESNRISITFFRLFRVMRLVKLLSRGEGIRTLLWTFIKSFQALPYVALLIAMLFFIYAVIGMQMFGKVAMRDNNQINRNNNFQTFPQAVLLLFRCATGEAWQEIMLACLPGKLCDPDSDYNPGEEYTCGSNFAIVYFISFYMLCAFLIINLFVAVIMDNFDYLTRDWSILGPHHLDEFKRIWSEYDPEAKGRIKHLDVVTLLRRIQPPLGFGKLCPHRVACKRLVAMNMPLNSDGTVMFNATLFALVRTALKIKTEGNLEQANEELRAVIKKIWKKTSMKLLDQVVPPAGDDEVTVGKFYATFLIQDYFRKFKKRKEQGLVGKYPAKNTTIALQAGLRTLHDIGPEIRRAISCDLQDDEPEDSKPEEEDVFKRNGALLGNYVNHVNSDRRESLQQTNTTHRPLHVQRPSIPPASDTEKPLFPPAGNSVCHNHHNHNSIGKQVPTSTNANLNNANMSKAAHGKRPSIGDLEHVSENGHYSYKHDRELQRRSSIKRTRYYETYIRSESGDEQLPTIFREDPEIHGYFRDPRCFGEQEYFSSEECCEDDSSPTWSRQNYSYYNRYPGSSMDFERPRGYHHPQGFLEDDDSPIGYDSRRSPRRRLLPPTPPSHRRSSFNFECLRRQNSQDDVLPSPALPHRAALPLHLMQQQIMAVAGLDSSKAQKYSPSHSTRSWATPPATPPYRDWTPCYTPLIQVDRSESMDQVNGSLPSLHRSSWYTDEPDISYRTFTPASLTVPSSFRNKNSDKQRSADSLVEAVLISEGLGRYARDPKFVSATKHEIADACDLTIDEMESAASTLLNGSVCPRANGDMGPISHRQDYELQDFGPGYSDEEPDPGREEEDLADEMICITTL
T2 sequence (P54284 whole entry partner): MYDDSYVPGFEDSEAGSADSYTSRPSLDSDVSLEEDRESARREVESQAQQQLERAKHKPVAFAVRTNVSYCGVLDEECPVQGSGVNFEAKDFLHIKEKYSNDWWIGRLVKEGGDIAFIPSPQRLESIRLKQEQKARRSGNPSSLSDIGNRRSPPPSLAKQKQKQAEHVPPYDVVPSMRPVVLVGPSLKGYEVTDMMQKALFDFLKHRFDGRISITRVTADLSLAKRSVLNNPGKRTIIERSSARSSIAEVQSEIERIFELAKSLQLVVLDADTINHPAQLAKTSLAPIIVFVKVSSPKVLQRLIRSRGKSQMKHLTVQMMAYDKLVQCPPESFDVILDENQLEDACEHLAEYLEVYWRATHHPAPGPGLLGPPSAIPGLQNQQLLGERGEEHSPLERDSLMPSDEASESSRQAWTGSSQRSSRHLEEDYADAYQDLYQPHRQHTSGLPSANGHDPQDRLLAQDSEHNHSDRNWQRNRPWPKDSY
T2 sequence (P54289 25-956 partner limits assumed): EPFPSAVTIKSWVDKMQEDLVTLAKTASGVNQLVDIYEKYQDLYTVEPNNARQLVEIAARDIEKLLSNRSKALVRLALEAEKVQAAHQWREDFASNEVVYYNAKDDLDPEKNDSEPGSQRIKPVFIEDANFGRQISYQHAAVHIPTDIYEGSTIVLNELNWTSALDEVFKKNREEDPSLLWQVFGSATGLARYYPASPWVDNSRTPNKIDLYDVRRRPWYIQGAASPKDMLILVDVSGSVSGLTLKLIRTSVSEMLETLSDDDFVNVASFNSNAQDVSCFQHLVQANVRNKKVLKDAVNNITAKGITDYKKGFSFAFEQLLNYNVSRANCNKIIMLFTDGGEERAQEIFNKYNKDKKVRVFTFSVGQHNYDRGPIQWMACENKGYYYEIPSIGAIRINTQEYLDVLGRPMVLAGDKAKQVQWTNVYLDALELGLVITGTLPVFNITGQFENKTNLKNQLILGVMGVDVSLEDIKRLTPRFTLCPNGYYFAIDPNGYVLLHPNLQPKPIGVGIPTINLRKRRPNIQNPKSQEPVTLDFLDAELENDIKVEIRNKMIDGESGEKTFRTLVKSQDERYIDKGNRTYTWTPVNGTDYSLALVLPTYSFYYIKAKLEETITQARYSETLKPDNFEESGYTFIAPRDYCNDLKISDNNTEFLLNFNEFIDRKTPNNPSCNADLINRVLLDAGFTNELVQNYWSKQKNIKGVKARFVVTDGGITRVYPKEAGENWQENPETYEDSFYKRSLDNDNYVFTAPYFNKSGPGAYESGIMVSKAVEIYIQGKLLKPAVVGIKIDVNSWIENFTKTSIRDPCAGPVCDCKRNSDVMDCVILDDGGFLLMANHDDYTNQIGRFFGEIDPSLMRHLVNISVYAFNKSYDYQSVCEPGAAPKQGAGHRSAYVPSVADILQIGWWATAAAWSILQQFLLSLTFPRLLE
T2 sequence (P54289 957-1103 partner limits assumed): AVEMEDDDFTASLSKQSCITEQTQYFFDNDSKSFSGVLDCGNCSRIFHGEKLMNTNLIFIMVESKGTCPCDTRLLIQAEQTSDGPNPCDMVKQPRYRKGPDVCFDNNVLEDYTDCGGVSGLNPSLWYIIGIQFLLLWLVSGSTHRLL
Put plainly: Whole-cell voltage-clamp recordings, Cav1.3 LTCC in HEK293 cells. In kind it is cell-based. On the procedure: (§1) Using the same cell lines from the initial screening, whole-cell voltage clamp recordings were made of either Cav1.3 LTCC or Cav1.2 LTCC containing HEK293 cells in the absence or presence of SKP00 4C08 at 1 μM. Bath application of SKP00 4C08 blocks ˜35% of the Cav1.3 channel current. SKP00 4C08 at the same concentration had no effect on Cav1.2 channel currents.
(§2) Bioactivity Confirmation Using Whole-cell Patch Clamp. Because IC50 values depend strongly on assay conditions, the inhibitory activity of compound 8 (SKP00 4C08) was confirmed at Cav1.3 and Cav1.2 channels in HEK293 cells by whole-cell voltage-clamp electrophysiological recordings (FIG. 8).
(§3) Whole-cell voltage-clamp recordings (FIG. 8A) were made in the absence (black, top) or presence (red, top) of compound 8 (SKP00 4C08) (5 μM). Superfusion of selected PYT blocks evoked barium currents in both LTCC cell lines in keeping with the data from our initial screen (FIG. 5B).
General Procedure for Whole-cell Patch Clamp. HEK-293 cells were stably transfected with rat Cav1.3 (α1D) or rabbit Cav1.2 (α1C), Cavβ3, and Cavα2δ-1 and were cultured as previously reported (Chan et al. (2007) Nature 447:1081-1086.; herein incorporated by reference in its entirety). After 24-48 h of incubation at 37° C., cells underwent whole-cell patch-clamp electrophysiology. The external solution contained the following (in mM): 140 NaCl, 1 MgCl2, 10 BaCl2, 10 HEPES, 10 dextrose, 10 sucrose, and 20 CsCl at pH 7.4 and an osmolarity of ˜320 mOSml^−1. The test compound stock solutions in DMSO (10 mM or just DMSO) were diluted with the external solution to the desired concentration (10^−9 to 10^−6M), which was perfused (2 mL/min) into the bath while measuring the evoked barium currents. For experiments where dose-response curves were obtained, local perfusion of the desired concentration was employed. Barium currents were measured from whole-cell voltage patch-clamp recordings using a Pulse 8.4 software data acquisition system (HEKA, Germany). […] Electrophysiological signals were analyzed using […] […]

Series [3] concerns the target Cav1.2 L-type Ca channels (Oryctolagus cuniculus, UniProt P15381). Put plainly: FLIPR Fluo-8 calcium assay, Cav1.2 channel inhibition in HEK293 cells.
Series [4] has as its target T3, Cav1.2 (α1C) LTCC (Oryctolagus cuniculus, UniProt P15381).
T3 construct: expressed in transfected cells; host or cells: HEK-293, stably transfected
Description: Whole-cell voltage-clamp recordings, Cav1.2 LTCC in HEK293 cells. The following applies: 1 μM. In kind it is cell-based, rabbit. On the procedure:
as §1, §2, §3
(§4) General Procedure for Whole-cell Patch Clamp. […] Barium currents were measured from whole-cell voltage patch-clamp recordings using a Pulse 8.4 software data acquisition system (HEKA, Germany). […] Electrophysiological signals were analyzed using […] […]

For series [5], the target named is T4, Cav1.2 (α1C) L-type calcium channel (Oryctolagus cuniculus, UniProt P15381).
T4 construct: expressed in transfected cells; host or cells: HEK-293, stably transfected
Described as above. The class given is cell-based, rabbit. The following applies: rabbit, pH 7.4; 5 μM, whole-cell voltage clamp; read-out: inhibition of Cav1.2 channels. On the procedure:
as §1, §2, §3, §4

T1 sequence (P27732 whole entry): as the sequence (P27732 whole entry) above
T1 sequence (P54284 whole entry partner): as the sequence (P54284 whole entry partner) above
T1 sequence (P54289 25-956 partner limits assumed): as the sequence (P54289 25-956 partner limits assumed) above
T1 sequence (P54289 957-1103 partner limits assumed): as the sequence (P54289 957-1103 partner limits assumed) above

Molecule `O=C1CC(=O)N(C2CCCC2)C(=O)N1CCc1cccc(Cl)c1` [Compound 8, N-(3-chlorophenethyl)-N′-cyclopentyl-pyrimidine-2,4,6-(1H,3H,5H)-trione] registered a melting point of 131 to 132 °C. Also, the IC50 in series [1] (IC50 (μM) Cav1.3, Table 4, 12 concentration points (0.1 nM~100 μM) in duplicate) came out at 1.7 µM. The IC50 in series [1] (IC50 (μM) Cav1.3, third library, FLIPR, HEK293, value (±SD)) is 1.7 µM. The IC50 in series [1] (IC50 with Cav1.3) was 1.61 µM and 1.7 µM. The Selectivity in series [1] (Table 4, Cav1.3 relative to Cav1.2 from IC50 values) is 1008. Further, the “inhibition ratio Cav1.3 vs Cav1.2, FLIPR assay” value in series [1] (at 5.5 (unit not given)) turned out to be 11 fold. Besides, the “selectivity for Cav1.3 over Cav1.2” value in series [1] came to 1000 fold. The “selectivity for Cav1.3 over Cav1.2” value in series [1] (listed as SKP00 4C08) is listed as “greater than 1000 fold”. In addition, the Selectivity in series [1] (third library, ratio of IC50 Cav1.2 to Cav1.3) is recorded as 1008.2. In series [2] (1 μM, bath application), the “block of Cav1.3 channel current” value is recorded as around 35%. Besides, the “inhibition ratio Cav1.3 vs Cav1.2” value in series [2] (5 μM, whole-cell voltage clamp) is given as “roughly 12 fold”. In addition, the inhibition at 5 µM in series [2] (HEK293, 5 μM, whole-cell voltage clamp, read-out: inhibition of Cav1.3 channels) turned out to be 43.8 ± 11%. In series [3] (IC50 (μM) Cav1.2, Table 4, 12 concentration points (0.1 nM~100 μM) in duplicate), the IC50 was found to be 1730 µM. In addition, the IC50 in series [3] (IC50 (μM) Cav1.2, third library, FLIPR, HEK293, value (±SD)) came to 1730 µM. Also, the “effect on Cav1.2 channel currents” value in series [4] is reported as “no effect”. Besides, the inhibition at 5 µM in series [5] was determined as 3.8 ± 2.9%.

The IC50 is the concentration at which inhibition is half-maximal. By inhibition is commonly meant the share of the control response that was lost under treatment. By melting point is commonly meant the temperature, or range, at which the solid turns liquid.
